Assay results published in PMC7884692, “Arginine glycosylation enhances methylglyoxal detoxification” (Scientific Reports, 2021).

Molecular target: T1, GloA (Salmonella enterica, UniProt P0A1Q2)
T1 construct: full length, His-tag (modified pET28a, tac promoter), E. coli BL21(DE3); unglycosylated form
T1 sequence (P0A1Q2 1-135): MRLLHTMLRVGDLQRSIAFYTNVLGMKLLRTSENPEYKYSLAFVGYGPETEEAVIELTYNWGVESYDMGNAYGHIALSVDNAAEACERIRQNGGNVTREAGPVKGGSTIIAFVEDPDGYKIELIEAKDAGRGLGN
Assay: S-lactoylglutathione production at OD240
Assay type: biochemical
Conditions: unglycosylated GloA 50 nM; hemithioacetal from 5 mM glutathione + 5 mM methylglyoxal; 100 mM NaH2PO4 pH 7.0

C[C@@H](O)C(=O)SC[C@H](NC(=O)CC[C@H](N)C(=O)O)C(=O)NCC(=O)O [S-lactoylglutathione]
S-lactoylglutathione production at OD240: both hemithioacetal consumption and S-lactoylglutathione production was measured as a function of time
